A word on the IC50: it is the concentration at which inhibition is half-maximal.

The target of the experiment is T1, CPV-2 NS1 endonuclease (Canine parvovirus type 2, UniProt P12929).
T1 construct: hexahistidine (N); hexahistidine (C); made in house; host or cells: E. coli BL21 (De3) pLysS
In words: FRET nicking assay, inhibition of recombinant CPV-2 NS1 endonuclease. The class given is biochemical, Canine parvovirus type 2 (CPV-2). Conditions: for Inhibition (%) at 50 μM: 50 μM inhibitor; for IC50: single compounds, 1.25 μg endonuclease, pH 7.0, 300 mM NaCl, 37°C, curcumin by 4PL, others by linear regression. The text has this:
The fluorescence resonance energy transfer (FRET) substrate, which was composed of an oligonucleotide 5¢-TAA CCT TAC CAT AAG TA↓T CAA TCT GTC TTT-3¢ labeled with carboxyfluorescein (FAM) at the 5¢-terminus and black hole quencher 1 (BHQ1) at the 3¢-terminus as the energy transfer pair, was designed and synthesized by Bioneer Corp. (Korea) (Fig. S1).
cDNA of the CPV-2 NS1 endonuclease gene was synthesized after codon optimization (Genscript, USA) based on the N-terminal amino acid sequence (amino acids 1–277 of the DNA-binding region) of CPV-2 NS1 endonuclease (GenBank Accession No. AAV36764.1) (Fig. S2). The CPV-2 NS1 endonuclease gene was imbedded into the pET-28a (+) vector (Novagen, Germany) with hexahistidine tags at the N- and C-termini. The plasmids were transformed into E. coli BL21 (De3) pLysS (Invitrogen, USA) for expression. The transformed cells were cultured in 1 L of LB containing 30 μg/ml kanamycin at 37°C until the OD600 reached 0.6. Next, protein expression was induced with 1 mM isopropyl β-D-1-thiogalactopyranoside (IPTG) at 24°C for 20 h. Cells were harvested by centrifugation at 12,000 ×g for 25 min and 4°C. The pellet was resuspended in 50 ml 50 mM Tris-HCl buffer (pH 7.0) containing 300 mM NaCl and disrupted by sonication. After centrifugation at 12,000 ×g for 30 min and 4°C, the supernatant was applied to a Ni-NTA agarose column (Qiagen, Germany) and washed with 50 mM Tris-HCl buffer (pH 8.0) containing 300 mM NaCl and 20 mM imidazole. CPV-2 NS1 endonuclease was eluted with 50 mM Tris-HCl buffer (pH 8.0) containing 300 mM NaCl, and 250 mM imidazole, and dialyzed against 50 mM Tris-HCl (pH 7.0) containing 300 mM NaCl at 4°C overnight. The purified protein was stored at −20°C until required.
CPV-2 NS1 endonuclease activity was measured using an FRET substrate as described above. The reaction mixture was composed of 1.25 μg endonuclease and 0.6 μM FRET in 50 mM Tris-HCl buffer (pH 7.0). The reaction was run at 37°C with continuous monitoring of fluorescence for 10 min. Relative fluorescence units (RFUs) were measured using a SpectraMax M3 fluorescence plate reader (Molecular Devices, USA) with an excitation wavelength of 495 nm and an emission wavelength of 517 nm.
Thirty-one compounds, extracted sesame cake, turmeric, and yerba mate were tested for inhibitory effects against CPV-2 NS1 endonuclease. For screening, thirty-one compounds, turmeric, and yerba mate were dissolved in dimethyl sulfoxide (DMSO) to 5 mM or 10 mg/ml as stock solutions. Sesame cake extract (10 mg/ml) was solubilized in water. The reaction was initiated by adding 0.6 μM FRET substrate to a mixture of 50 μM compound and 1.25 μg endonuclease in 50 mM Tris-HCl buffer (pH 7.0) containing 300 mM NaCl. The reaction was run at 37°C for 3 min using a SpectraMax M3 fluorescence plate reader with an excitation wavelength of 495 nm and emission wavelength of 517 nm. Inhibitory activity was calculated using the following equation:
Inhibition activity (%) 100-[(S-S0)÷(C-C0)]×100
where C is RFU of the control (enzyme, buffer, and substrate) after a 3 min reaction, C0 is the RFU of the control at 0 min, S is the RFU of the sample (enzyme, buffer, inhibitor, and substrate) after 3 min, and S0 is the RFU of the sample at 0 min.
We determined the 50% inhibitory concentrations (IC50) of the six natural compounds, extracted turmeric, yerba mate, and sesame cake relative to the inhibitor-free control. The IC50 values of curcumin, and extracted sesame cake were calculated using a four-parameter logistic curve (4PL) using Prism v. 8 software (GraphPad Software Inc., USA). […] 8 software.

The mark [1] stands for this setting: 0.6 μM FRET substrate, 1.25 μg enzyme, 50 mM Tris/HCl pH 7.0, 37°C, 3 min.
[2] abbreviates: pH 7, read-out: Inhibition (%) at 50 μM, 50 μM inhibitor, 0.6 μM FRET substrate, 1.25 μg enzyme, 50 mM Tris/HCl pH 7.0, 37°C, 3 min.
Where [3] appears, read: pH 7, 50 μM inhibitor, 0.6 μM FRET substrate, 1.25 μg enzyme, 50 mM Tris/HCl pH 7.0, 37°C, 3 min, read-out: Inhibition (%) at 50 μM.

“And” between values parts separate entries of the source, which are not always exact repeats. Equal values may be shown once. Read-outs that look alike come from different tables or passages of the source.

T1 sequence (P12929 1-277): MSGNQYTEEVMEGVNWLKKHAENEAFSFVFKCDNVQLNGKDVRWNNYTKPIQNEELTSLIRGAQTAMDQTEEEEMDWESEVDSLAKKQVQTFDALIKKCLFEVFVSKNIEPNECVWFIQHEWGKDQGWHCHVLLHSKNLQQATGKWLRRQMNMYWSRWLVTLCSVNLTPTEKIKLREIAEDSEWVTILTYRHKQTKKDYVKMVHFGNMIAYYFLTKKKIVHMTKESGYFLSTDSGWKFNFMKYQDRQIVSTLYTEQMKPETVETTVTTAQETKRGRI

In the case of `O=C(/C=C/c1ccc(O)cc1)CC(=O)/C=C/c1ccc(O)cc1` [Bisdemethoxycurcumin], under setting [1], the “Inhibition (%) at 50 μM” value is 100%. The inhibition at 50 µM under setting [2] was greater than 95%. Also, the IC50 (0.6 μM FRET substrate, 3 min) was 0.45 ± 0.05 µM.
Regarding `c1cc2c(cc1O[C@H]1OC[C@H]3[C@@H]1CO[C@@H]3c1ccc3c(c1)OCO3)OCO2` [Sesamolin], under setting [1], the “Inhibition (%) at 50 μM” value is given as “did not inhibit”. Besides, the inhibition at 50 µM under setting [3] was 0%.
For the molecule `O=C1C[C@@H](c2ccc(O)cc2)Oc2cc(O)cc(O)c21` [Naringenin], the “Inhibition (%) at 50 μM” value under setting [1] is reported as “did not inhibit”. For the same molecule, the inhibition at 50 µM under setting [3] came to 0%.
For `CC1=C(C/C=C(\C)CCC[C@H](C)CCC[C@H](C)CCCC(C)C)C(=O)c2ccccc2C1=O` [Vitamin K1], under setting [3], the inhibition at 50 µM was 68 ± 15%.
For `Oc1ccc(/C=C/c2cc(O)cc(O)c2)cc1` [Resveratrol], the “Inhibition (%) at 50 μM” value under setting [1] is “did not inhibit”. Also, under setting [3], the inhibition at 50 µM was found to be 0%.
Take `Oc1ccc2c(c1)OCO2` [Sesamol]: the “Inhibition (%) at 50 μM” value under setting [1] came to 9 ± 5% and the “Inhibition (%) at 50 μM” value (0.6 μM FRET substrate, 1.25 μg enzyme, 50 mM Tris/HCl pH 7.0, 37°C, 3 min, listed as sesamol) is reported as less than 50%.
Take `O=c1c(-c2ccc(O)cc2)coc2cc(O)cc(O)c12` [Genistein]: the “Inhibition (%) at 50 μM” value under setting [1] is listed as 45 ± 14%. Also, the inhibition at 50 µM under setting [2] was less than 50%.
Consider `O=c1c(O)c(-c2cc(O)c(O)c(O)c2)oc2cc(O)cc(O)c12` [Myricetin], for which, under setting [1], the “Inhibition (%) at 50 μM” value is listed as “did not inhibit”. Also, the inhibition at 50 µM under setting [3] turned out to be 0%.
As to `C[N+](C)(C)C[C@H](O)CC(=O)[O-]` [L-carnitine], the “Inhibition (%) at 50 μM” value under setting [1] was < 50% and 29 ± 2%.
In the case of `O=c1c(-c2ccc(O)cc2)coc2cc(O)ccc12` [Daidzein], the “Inhibition (%) at 50 μM” value reads like this: under setting [1], 22 ± 12%; (0.6 μM FRET substrate, 1.25 μg enzyme, 50 mM Tris/HCl pH 7.0, 37°C, 3 min, listed as daidzein) less than 50%.
As to `C[C@H]1[C@H](C)CC[C@]2(C(=O)O)CC[C@]3(C)C(=CC[C@@H]4[C@@]5(C)CC[C@H](O)C(C)(C)[C@@H]5CC[C@]43C)[C@H]12` [Ursolic acid], the “Inhibition (%) at 50 μM” value is, setting by setting: under setting [1], 29 ± 5%; (0.6 μM FRET substrate, 1.25 μg enzyme, 50 mM Tris/HCl pH 7.0, 37°C, 3 min, listed as ursolic acid) < 50% and > 29%.
On to `O=C(/C=C/C=C/c1ccc2c(c1)OCO2)N1CCCCC1` [Piperine], for which, under setting [1], the “Inhibition (%) at 50 μM” value is “did not inhibit”. Under setting [3], the inhibition at 50 µM stood at 0%.
Take `O=C1O[C@H]([C@@H](O)CO)C(O)=C1O` [L-Ascorbic acid]: under setting [1], the “Inhibition (%) at 50 μM” value was “did not inhibit”. Further, the inhibition at 50 µM under setting [3] was found to be 0%.
Consider `Cn1c(=O)c2c(ncn2C)n(C)c1=O` [Caffeine], for which the “Inhibition (%) at 50 μM” value is 7 ± 7% under setting [1] and less than 50% (0.6 μM FRET substrate, 1.25 μg enzyme, 50 mM Tris/HCl pH 7.0, 37°C, 3 min, listed as caffeine).
`CCCCC/C=C\C/C=C\CCCCCCCC(=O)O` [Linoleic acid]: under setting [1], the “Inhibition (%) at 50 μM” value worked out at 100%. The inhibition at 50 µM under setting [2] was greater than 95%. The concentration for half-maximal inhibition (IC50) (0.6 μM FRET substrate, 3 min) was 1.14 ± 0.04 µM.
In the case of `O=C(/C=C/c1ccc(O)c(O)c1)O[C@@H]1C[C@](O)(C(=O)O)C[C@@H](O)[C@H]1O` [Chlorogenic acid], the “Inhibition (%) at 50 μM” value is, setting by setting: under setting [1], 29 ± 4%; (0.6 μM FRET substrate, 1.25 μg enzyme, 50 mM Tris/HCl pH 7.0, 37°C, 3 min, listed as chlorogenic acid) < 50% and > 29%.
In the case of `Cc1c(C)c2c(c(C)c1O)CC[C@@](C)(CCC[C@H](C)CCC[C@H](C)CCCC(C)C)O2` [α-Tocopherol (Vitamin E), α-Tocopherol], the “Inhibition (%) at 50 μM” value under setting [1] is listed as 98 ± 3%. For the same molecule, under setting [2], the inhibition at 50 µM was greater than 95%. Also, the IC50 (0.6 μM FRET substrate, 3 min) is 8.03 ± 0.8 µM.
On to `O=C(O)/C=C/c1ccc(O)c(O)c1` [Caffeic acid], for which the “Inhibition (%) at 50 μM” value by setting is: under setting [1], 42 ± 8%; (0.6 μM FRET substrate, 1.25 μg enzyme, 50 mM Tris/HCl pH 7.0, 37°C, 3 min, listed as caffeic acid) < 50% and > 29%.
In the case of `O=c1c2cc(O)c(O)cc2oc2cc(O)c([C@@H]3O[C@H](CO)[C@@H](O)[C@H](O)[C@H]3O)c(O)c12` [Mangiferin], under setting [1], the “Inhibition (%) at 50 μM” value is “did not inhibit”. Also, under setting [3], the inhibition at 50 µM was found to be 0%.
With `O=c1c(O)c(-c2ccc(O)c(O)c2)oc2cc(O)ccc12` [Fisetin], under setting [1], the “Inhibition (%) at 50 μM” value is given as “did not inhibit”. The inhibition at 50 µM under setting [3] stood at 0%.
Regarding `O=C(O[C@@H]1Cc2c(O)cc(O)cc2O[C@@H]1c1cc(O)c(O)c(O)c1)c1cc(O)c(O)c(O)c1` [EGCG, epigallocatechin gallate], the “Inhibition (%) at 50 μM” value is recorded as 49 ± 6% under setting [1] and less than 50% (0.6 μM FRET substrate, 1.25 μg enzyme, 50 mM Tris/HCl pH 7.0, 37°C, 3 min, listed as epigallocatechin gallate).
For `O=c1c(O[C@@H]2O[C@H](CO)[C@@H](O)[C@H](O)[C@H]2O)c(-c2ccc(O)cc2)oc2cc(O)cc(O)c12` [Astragalin], the “Inhibition (%) at 50 μM” value under setting [1] is listed as “did not inhibit”. Moreover, the inhibition at 50 µM under setting [3] worked out at 0%.
The like results for `c1cc2c(cc1[C@H]1OC[C@H]3[C@@H]1CO[C@@H]3c1ccc3c(c1)OCO3)OCO2` [(+)-Sesamin] were, in that order, “did not inhibit” and 0%.
Take `COc1cc(/C=C/C(=O)O)ccc1O` [Ferulic acid]: the “Inhibition (%) at 50 μM” value by setting is: under setting [1], 37 ± 5%; (0.6 μM FRET substrate, 1.25 μg enzyme, 50 mM Tris/HCl pH 7.0, 37°C, 3 min, listed as ferulic acid) less than 50%.
On to `C[C@@H]1O[C@@H](OC[C@H]2O[C@@H](Oc3c(-c4ccc(O)c(O)c4)oc4cc(O)cc(O)c4c3=O)[C@H](O)[C@@H](O)[C@@H]2O)[C@H](O)[C@H](O)[C@H]1O` [Rutin], for which, under setting [1], the “Inhibition (%) at 50 μM” value is listed as “did not inhibit”. For the same molecule, under setting [3], the inhibition at 50 µM was 0%.
Regarding `O=c1c(O)c(-c2ccc(O)c(O)c2)oc2cc(O)cc(O)c12` [Quercetin], the “Inhibition (%) at 50 μM” value reads like this: under setting [1], 51 ± 3%; (0.6 μM FRET substrate, 1.25 μg enzyme, 50 mM Tris/HCl pH 7.0, 37°C, 3 min, listed as quercetin) greater than 29%.
Regarding `COc1cc(/C=C/C(=O)CC(=O)/C=C/c2ccc(O)cc2)ccc1O` [Demethoxycurcumin], the “Inhibition (%) at 50 μM” value under setting [1] came to 100%. Moreover, the inhibition at 50 µM under setting [2] is greater than 95%. Also, the IC50 (0.6 μM FRET substrate, 3 min) came to 0.63 ± 0.01 µM.
For `O=C(O)c1cc(O)c(O)c(O)c1` [Gallic acid], the “Inhibition (%) at 50 μM” value is, setting by setting: under setting [1], 2 ± 2%; (0.6 μM FRET substrate, 1.25 μg enzyme, 50 mM Tris/HCl pH 7.0, 37°C, 3 min, listed as gallic acid) less than 50%.

For the origin of these results see article PMC10331946, “Characterization of Natural Compounds as Inhibitors of NS1 Endonuclease from Canine Parvovirus Type 2” (Journal of Microbiology and Biotechnology, 2023).
